In experiment [1] the test system is PlcR regulon (plcA promoter-lacZ fusion). Put plainly: Competition studies of PapR7-derived peptides with endogenous PapR, β-galactosidase (lacZ reporter) assay. The class given is cell-based, B. thuringiensis 407 Cry- plcA'Z (Bt A'Z). Particulars: Bt A'Z; for reduction of plcA'Z activity: 2.5 μM peptide, added at late-exponential phase (OD600 1.8 ± 0.1), normalized to untreated cells, mean; for reduction of plcA'Z activity / effect on plcA'Z activation / PlcR regulon activity after 24 h (in words) / effect on plcA'Z activation at low cell density (in words): n = 9; for IC50: late-exponential phase (OD600 1.8 ± 0.1), competition with endogenous PapR, mean ± SEM, SEM, read-out: IC50, lacZ-based reporter assay; for effect on plcA'Z activation / PlcR regulon activity after 24 h (in words) / effect on plcA'Z activation at low cell density (in words): 10 μM peptide; for effect on plcA'Z activation / PlcR regulon activity after 24 h (in words): added at OD600 0.1 ± 0.03, harvested after 24 h; for effect on plcA'Z activation at low cell density (in words): added at OD600 0.1 ± 0.03, quantified after 2.5 h; for class of inhibitory activity throughout the competition studies: plcA'lacZ, summary of the competition studies. How it is done: Bacterial strains used in this study: B. thuringiensis 407 Cry ^- plcA′Z (Bt A’Z) and the PapR null-mutant 407 Cry ^- ΔpapR plcA’Z (Bt ΔpapR A’Z) strains, containing a transcriptional fusion between the promoter of plcA and the lacZ reporter gene (as described previously; [Gominet et al., 2001]; [Slamti and Lereclus, 2002]); B. cereus strain ATCC 14579 ([Ivanova et al., 2003]). Unless otherwise noted, cells were grown in modified LB medium (16 g/L tryptone, 8 g/L yeast extract, 5 g/L NaCl) at 37°C and stored at −80°C in LB containing 25% glycerol. Kanamycin (200 μg/mL) was used for the selection of B. thuringiensis.
Bt A’Z cells were grown overnight in LB medium. The cells were diluted 10^–3 in modified LB to a final volume of 1 L and incubated at 37°C with shaking (200 rpm) until the end of the lag or late-exponential of bacterial growth (OD600 0.1 ± 0.03; 1.8 ± 0.1, respectively). Different concentrations of synthetic peptides were added to 2 ml aliquots of culture and incubated for various times (1–24 h) before centrifugation (Eppendorf centrifuge R5810, 4000 rpm for 5 min) and quantification of β-galactosidase activity.
β-galactosidase activity was measured as described previously ([Yang et al., 2017]), with minor modifications. Briefly, 200 μL aliquots from 2 ml treated cultures were added in triplicate to a clear 96-well microtiter plate, and then OD600 was measured and β-galactosidase activity was assayed. The final results were reported as percentage of activation, which is the ratio between the Miller units obtained after addition of the PapR7 analogs. In Bt ΔpapR A’Z strain, the plcA promoter activity was very low and considered as a baseline. In Bt A’Z strain, the untreated bacteria were considered as 100% of activation and the results were normalized accordingly. Each assay was repeated at least three times.

The test system of the next experiment is B. cereus ATCC 14579. It is filed as cell-based, Bacillus cereus. Particulars: n = 9; for IC50: supernatant of B. cereus ATCC 14579 cultures treated at OD600 0.1 ± 0.03 for 2.5 h, 1% human red blood cells, 30 min, 37°C, absorbance at 420 nm, mean ± SEM, SEM, read-out: IC50, hemolytic assay; for reduction of hemolytic activity: 10 μM peptide, B. cereus ATCC 14579 treated at OD600 0.1 ± 0.03, human red blood cells, normalized to untreated. How it is done:
Bt A’Z or B. cereus ATCC 14579 cells were grown overnight in LB medium. The cells were diluted 10^–3 in modified LB to a final volume of 1 liter and incubated at 37°C with shaking (200 rpm) until the end of the lag phase of bacterial growth (OD600 0.1 ± 0.03). Different concentrations of synthetic peptides were added to 2 ml aliquots of culture and incubated for 2.5 h before centrifugation (Eppendorf centrifuge R5810, 4000 rpm for 5 min), separation and filtration (0.2 μm filter) of the supernatants of the treated cultures. Analyses of hemolytic activity were conducted as previously described using human red blood cells ([Tal-Gan et al., 2013b]; [Lobel et al., 2015]). Bacterial supernatants were serially diluted in Tris-buffered saline (pH 7.2, 10 mM Tris–HCl, 155 mM NaCl) with 1% human red blood cells (hRBC) suspension and were incubated for 30 min at 37°C. Hemolytic activities were measured by monitoring the absorbance at 420 nm.

Experiment [2] has as its target PlcR of B. thuringiensis 407 Cry- (B. thuringiensis (endogenous in strain 407 Cry- plcA'Z)).
Experiment [3] concerns the target PlcR of B. cereus ATCC 14579 (B. cereus (endogenous in strain ATCC 14579)).
For experiment [4] the target is unchanged. This is another data set of the same source.
The target is the same in experiment [5]. The source holds these as a separate data set.
In experiment [6] the target is PlcR of B. thuringiensis 407 Cry- (B. thuringiensis (endogenous in strain 407 Cry- plcA'Z)). The source holds these as a separate data set.

“Also recorded” adds a separate entry of the source. Where a SMILES comes first, the peptide text is derived from it. [ ]: non-standard residue; d: D form.

Usually IC50 stands for the concentration that gives 50% inhibition.

With `CC(C)C[C@H](NC(=O)[C@H](CC(=O)O)NC(=O)[C@H](C)N)C(=O)N1CCC[C@H]1C(=O)N[C@@H](Cc1ccccc1)C(=O)N[C@H](CCC(=O)O)C(=O)N[C@@H](Cc1ccccc1)C(N)=O` [PapR7-dE6, reference compound] (H-ADLPF[dE]F-NH2; N-terminus assumed), in experiment [1], the “reduction of plcA'Z activity” value came to 65% and the IC50 worked out at 977 ± 42 nM. Also, the IC50 in the experiment with B. cereus ATCC 14579 came out at 1050 ± 89 nM.

On to `CC(C)C[C@H](NC(=O)[C@H](CC(=O)O)NC(=O)[C@H](C)N)C(=O)N1CCC[C@H]1C(=O)N[C@@H](Cc1ccccc1)C(=O)N[C@H](CCC(=O)O)C(=O)N[C@@H](C)C(N)=O` [PapR7-dE6:F7A] (H-ADLPF[dE]A-NH2; N-terminus assumed), for which, in experiment [1], the “reduction of plcA'Z activity” value is 65%, the “effect on plcA'Z activation / PlcR regulon activity after 24 h (in words)” value was “blocked plcA’Z activation; also recorded: blocked the PlcR regulon activity”, the “effect on plcA'Z activation at low cell density (in words)” value (“effect … at low cell density (in words)” for short) is “blocked plcA’Z activation” and the IC50 was determined as 2570 ± 203 nM. The “class of inhibitory activity throughout the competition studies” value in experiment [1] is “very potent inhibitors”. The IC50 in the experiment with B. cereus ATCC 14579 is 2500 ± 212 nM.

`CC(C)C[C@H](NC(=O)[C@H](CC(=O)O)NC(=O)[C@H](C)N)C(=O)N1CCC[C@H]1C(=O)N[C@@H](Cc1ccccc1)C(=O)N[C@H](CCC(=O)O)C(=O)N[C@H](Cc1ccccc1)C(N)=O` [PapR7-dE6:dF7] (H-ADLPF[dE][dF]-NH2; N-terminus assumed): in experiment [1], the “reduction of plcA'Z activity” value stood at 71%, the “effect on plcA'Z activation / PlcR regulon activity after 24 h (in words)” value is given as “blocked plcA’Z activation; also recorded: blocked the PlcR regulon activity”, the “effect … at low cell density (in words)” value was “blocked plcA’Z activation” and the IC50 came to 1680 ± 170 nM. The “class of inhibitory activity throughout the competition studies” value in experiment [1] is listed as “very potent inhibitors”. Moreover, the IC50 with B. cereus ATCC 14579 was determined as 1380 ± 117 nM.

Regarding `CC(C)C[C@H](NC(=O)[C@H](CC(=O)O)NC(=O)[C@H](C)N)C(=O)N1CCC[C@H]1C(=O)N[C@@H](Cc1ccccc1)C(=O)N[C@@H](CCC(=O)O)C(=O)N[C@H](Cc1ccccc1)C(N)=O` [PapR7-dF7, reference compound] (H-ADLPFE[dF]-NH2; N-terminus assumed), in experiment [1], the “reduction of plcA'Z activity” value was determined as 63% and the IC50 came out at 1220 ± 72 nM. Besides, the 50% inhibitory concentration (IC50) with B. cereus ATCC 14579 is 3040 ± 206 nM.

Take “ADLAFEA [PapR7-P4A:F7A, second-generation PapR7-derived peptide ADLAFEA]”: in experiment [1], the “reduction of plcA'Z activity” value is “approximately 40%”, the “effect … at low cell density (in words)” value is recorded as “drastic reduction in plcA’Z activity” and the “class of inhibitory activity throughout the competition studies” value was “median to high inhibitory activities”. In the experiment on B. cereus ATCC 14579, the “reduction of hemolytic activity” value was ~60%.

For the molecule “ADLAFEdF [PapR7-P4A:dF7, second-generation PapR7-derived peptide ADLAFEdF]”, in experiment [1], the “reduction of plcA'Z activity” value is given as “approximately 40%”, the “effect … at low cell density (in words)” value was “drastic reduction in plcA’Z activity” and the “class of inhibitory activity throughout the competition studies” value is listed as “median to high inhibitory activities”. The “reduction of hemolytic activity” value in the experiment with B. cereus ATCC 14579 was “approximately 83%”.

As for PapR7-E6A:F7A (peptide), the reduction of plcA'Z (β-galactosidase) activity in Bt A'Z cells, 2.5 μM peptide added at late-exponential phase; the pair that is blocked: endogenous PapR with PlcR in experiment [2] was determined as 40%. In experiment [3], this molecule yielded a reduction of the hemolytic activity (human red blood cells) of supernatants of B. cereus ATCC 14579 cultures treated with 10 μM peptide; the pair that is blocked: native PapR with PlcR of 60%.

Consider PapR7-E6A:dF7 (peptide), for which the reduction of plcA'Z (β-galactosidase) activity in Bt A'Z cells, 2.5 μM peptide added at late-exponential phase; the pair that is blocked: endogenous PapR with PlcR in experiment [2] worked out at 40%. In experiment [4], this molecule came in with an inhibition of the hemolytic activity (human red blood cells) of supernatants of B. cereus ATCC 14579 cultures treated with 10 μM peptide; the pair that is blocked: native PapR with PlcR of 83%.

For the molecule PapR7-F7A (peptide), in experiment [2], the reduction of plcA'Z (β-galactosidase) activity in Bt A'Z cells, 2.5 μM peptide added at late-exponential phase; the pair that is blocked: endogenous PapR with PlcR came to 70%. Moreover, in experiment [5], the IC50 of inhibition of the hemolytic activity (human red blood cells) of supernatants of treated B. cereus ATCC 14579 cultures; the pair that is blocked: native PapR with PlcR was 2720 nM. In experiment [6], this molecule yielded an IC50 of inhibition of plcA'Z (β-galactosidase) activity in Bt A'Z cells, lacZ-based reporter assay; the pair that is blocked: endogenous PapR with PlcR of 1680 nM.

The values above are taken from article PMC6568020, “Elucidating the Hot Spot Residues of Quorum Sensing Peptidic Autoinducer PapR by Multiple Amino Acid Replacements” (Frontiers in Microbiology, 2019).
